The source made the active and inactive calls.
Legend:
Assay type in all cases: functional, organism-based
Escherichia coli = experiment: Antibacterial activity against Escherichia coli up to 100 ug/mL by agar diffusion test
Staphylococcus aureus = experiment: Antibacterial activity against Staphylococcus aureus by agar diffusion test
Bacillus subtilis = experiment: Antibacterial activity against Bacillus subtilis up to 100 ug/mL by agar diffusion test
Rhizomucor miehei = experiment: Antifungal activity against Mucor miehei by agar diffusion test
Chlorella vulgaris = experiment: Antialgal activity against Chlorella vulgaris up to 100 ug/mL by agar diffusion test
Chlorella salina = experiment: Antialgal activity against Chlorella salina by agar diffusion test
Chlorella sorokiniana = experiment: Antialgal activity against Chlorella sorokiniana by agar diffusion test

Measured: Activity

Cc1ccc2c(c1)/C(=N\N=C1/CC(C)(C)Oc3ccc(C)cc31)CC(C)(C)O2
inactive: all assays above
